This is an account of results in patent US9421263B2, “Antimicrobial compositions containing synergistic combinations of quaternary ammonium compounds and essential oils and/or constituents thereof” (THE TRUSTEES OF COLUMBIA UNIVERSITY IN THE CITY OF NEW YORK, priority 2003, dated 2016).

One data set relates to E. coli. Put plainly: Rapid antimicrobial activity assay in presence of serum (E. coli). It is filed as cell-based.
Another data set deals with S. aureus. Put plainly: Evaluation of rapid antimicrobial activity in presence of serum (S. aureus). The class given is cell-based. Particulars: for synergy in combination with farnesol, in words: Example 3, Table 3, rapid serum-based assay; for log10 reduction, With zinc salts / cfu/ml, With zinc salts / log10 reduction, Without zinc salts / cfu/ml, Without zinc salts: Table 2; for log10 reduction, With zinc salts / cfu/ml, With zinc salts: Base #1 with zinc salts; for log10 reduction, With zinc salts / cfu/ml, With zinc salts / log10 reduction, Without zinc salts / cfu/ml, Without zinc salts / cfu/ml / log10 reduction / log10 reduction, S. aureus / cfu/ml, S. aureus / Log10 reduction: serum; for log10 reduction, With zinc salts / cfu/ml, With zinc salts / log10 reduction, Without zinc salts / cfu/ml, Without zinc salts / cfu/ml / log10 reduction / log10 reduction, S. aureus / cfu/ml, S. aureus / Log10 reduction / CFU/mL: 15 seconds; for cfu/ml, With zinc salts / cfu/ml: control gel 1.4 × 10^7; for log10 reduction, Without zinc salts / cfu/ml, Without zinc salts: Base #2 without zinc salts; for cfu/ml, Without zinc salts: control gel 4.1 × 10^7; for cfu/ml / log10 reduction: Table 3, groups in gel Base #2 (% w/w); for log10 reduction, S. aureus / cfu/ml, S. aureus: Base #2; for synergy of the combination, in words: Example 1, Table 1, Base #1; for Log10 reduction / CFU/mL: Table 1, BZK 0.12%, CHG 0.05%, TC 0.3%, ZP 0.5%, F/LO/LI/CI 0.3%; for Log10 reduction: Base #1 (zinc salts), versus Control (Base); for CFU/mL: agents in alcohol based zinc gel Base #1, bovine adult serum, control 3.4 × 10^7. The procedure:
Evaluation of Rapid Antimicrobial Activity in Presence of Serum.
To determine the efficacy of the antimicrobial composition on the skin, which may be contaminated with blood or other proteinaceous fluids containing bacteria, the antimicrobial activity was evaluated in the presence of serum as follows. Briefly, 0.5 ml of 10^8 CFU of S. aureus/ml was added to 0.5 ml of bovine adult serum in a sterile culture tube and mixed. 0.5 ml of the test formulation was added to each tube and vortexed. After 15 seconds, it was further diluted 1:100 with drug inactivating media (LTSB) and 0.5 ml was plated on a TSA plate. The plates were incubated at 37° C. for 24 hours and the colony count per ml of culture was determined.

The conditions of data set [1]: cited from earlier work.
Where [2] appears, read: Table 4, Base #2, BZK 0.12% w/w, BZT 0.18% w/w, all other EO/IC 0.5% w/w, 15 seconds.
Setting [3] is: Table 4, Base #2, BZK 0.12% w/w, BZT 0.18% w/w, all other EO/IC 0.5% w/w, 15 seconds, control 2.6 × 10^7.
The mark [4] stands for this setting: Table 5, Base #2, 15 seconds, gel base 2.6 × 10^7.
Where [5] appears, read: Table 4, BZK 0.12% w/w, BZT 0.18% w/w, all other EO/IC 0.5% w/w.
The mark [6] stands for this setting: Table 4, BZK 0.12% w/w, BZT 0.18% w/w, all other EO/IC 0.5% w/w, control 1.4 × 10^7.
The mark [7] stands for this setting: Table 6, Gel Base #1, ingredients % w/w, control base 3.4 × 10^7 cfu/ml.
The mark [8] stands for this setting: Table 7, ingredients in gram millimoles per 100 g Gel, control base 6.4 × 10^7 cfu/ml.
Setting [9] is: Example 6, Table 7, molar proportions.

For the compound `CC(C)(C)CC(C)(C)c1ccc(OCCOCC[N+](C)(C)Cc2ccccc2)cc1` [BZT, benzethonium chloride], the “log10 reduction, E. coli” value was found to be 1.8 log10 with E. coli (setting [2]) and 1.8 log10 in the data set on E. coli (Table 5, Base #2, 15 seconds). Moreover, the “cfu/ml, E. coli” value with E. coli (setting [3]) and with E. coli (setting [4]) was 4.3 × 10^5 cfu/ml each time. Also, the “synergy in combination with farnesol, in words” value with S. aureus is “synergistic antimicrobial activity when used in combination with farnesol”. The “log10 reduction, With zinc salts” value with S. aureus came to 1.6 log10. The “cfu/ml, With zinc salts” value in the data set with S. aureus was 3.3 × 10^5 cfu/ml. Further, the “log10 reduction, Without zinc salts” value in the data set with S. aureus was 1.7 log10. Besides, the “cfu/ml, Without zinc salts” value with S. aureus is 7.5 × 10^5 cfu/ml. Further, the figures for the cfu/ml in the data set with S. aureus (listed as BZT (0.06%)), in the data set with S. aureus (listed as BZT (0.12%)) and with S. aureus (listed as BZT (0.18%)) were 5.7 × 10^5 cfu/ml, 4.7 × 10^5 cfu/ml and 3.3 × 10^5 cfu/ml, respectively. Besides, the log10 reduction in the data set with S. aureus (listed as BZT (0.06%)) is given as 1.4 log10; in the data set with S. aureus (listed as BZT (0.12%)) it was 1.5 log10; in the data set with S. aureus (listed as BZT (0.18%)), 1.6 log10. For the same compound, the “log10 reduction, S. aureus” value with S. aureus (setting [5]) and in the data set with S. aureus (Table 5) was 1.4 log10 in each case. Also, the “cfu/ml, S. aureus” value is reported as 5.3 × 10^5 cfu/ml in the data set with S. aureus (setting [6]) and 5.3 × 10^5 cfu/ml in the data set with S. aureus (Table 5, gel base 1.4 × 10^7). In addition, the entries for the “log10 reduction in colony count from the control” value (“log10 reduction in colony count” for short) in the data set on S. aureus (setting [7]) and with S. aureus (setting [8]) were 1.6 log10 and 1.9 log10, respectively.

Take `N=C(NCCCCCCNC(=N)NC(=N)Nc1ccc(Cl)cc1)NC(=N)Nc1ccc(Cl)cc1.O=C(O)[C@H](O)[C@@H](O)[C@H](O)[C@H](O)CO.O=C(O)[C@H](O)[C@@H](O)[C@H](O)[C@H](O)CO` [CHG, chlorhexidine gluconate]: in the data set with E. coli (Table 5, Base #2, 15 seconds), the “log10 reduction, E. coli” value is on record as 1.7 log10. In addition, the “cfu/ml, E. coli” value in the data set with E. coli (setting [4]) is recorded as 4.8 × 10^5 cfu/ml. Also, in the data set with S. aureus, the “synergy of the combination, in words” value is “No such synergism was observed when farnesol was combined”; the Log10 reduction amounted to 1.7 log10; the CFU/mL was 6.6 × 10^5 CFU/mL. In addition, the “log10 reduction, S. aureus” value in the data set with S. aureus (Table 5) worked out at 1.3 log10. Further, the “cfu/ml, S. aureus” value in the data set with S. aureus (Table 5, gel base 1.4 × 10^7) is reported as 6.6 × 10^5 cfu/ml. In addition, the “log10 reduction in colony count” value in the data set on S. aureus (setting [7]) worked out at 1.7 log10. In the data set on S. aureus (setting [8]), the “log10 reduction in colony count” value came to 1.9 log10.

With `CC(C)=CCCC(C)=CC=O` [CI, Citral], in the data set with S. aureus, the “synergy of the combination, in words” value is reported as “synergistic antimicrobial effects when combined with BZK”; the Log10 reduction is recorded as 1.3 log10; the CFU/mL is recorded as 1.5 × 10^6 CFU/mL.

As to `CC(C)=CCCC(C)=CCCC(C)=CCO` [F, Farnesol], in the data set on E. coli (setting [2]), the “log10 reduction, E. coli” value is on record as 1.8 log10. Also, in the data set with E. coli (setting [3]), the “cfu/ml, E. coli” value was 4.3 × 10^5 cfu/ml. In the data set with E. coli (Table 5, Base #2, 15 seconds), the “log10 reduction, E. coli” value stood at 1.8 log10. Also, the “cfu/ml, E. coli” value in the data set with E. coli (setting [4]) is recorded as 4.3 × 10^5 cfu/ml. Also, in the data set on S. aureus, the “synergy of the combination, in words” value was “synergistic antimicrobial effects when combined with BZK”; the Log10 reduction worked out at 0.6 log10; the CFU/mL was 8.4 × 10^6 CFU/mL; the “log10 reduction, With zinc salts” value is listed as 1.5 log10. In the data set on S. aureus, the “cfu/ml, With zinc salts” value is given as 4.5 × 10^5 cfu/ml; the “log10 reduction, Without zinc salts” value amounted to 1.7 log10; the “cfu/ml, Without zinc salts” value is on record as 8.9 × 10^5 cfu/ml; the log10 reduction came to 1.5 log10. Moreover, the cfu/ml in the data set with S. aureus (listed as Farnesol (0.3%)) is 4.6 × 10^5 cfu/ml. For the same compound, in the data set on S. aureus (listed as Farnesol (0.5%)), the cfu/ml is recorded as 4.5 × 10^5 cfu/ml. Moreover, the “log10 reduction, S. aureus” value with S. aureus (setting [5]) is 1.5 log10. For the same compound, the “cfu/ml, S. aureus” value in the data set with S. aureus (setting [6]) was 4.5 × 10^5 cfu/ml. For the same compound, the “log10 reduction, S. aureus” value with S. aureus (Table 5) turned out to be 1.5 log10. Besides, the “cfu/ml, S. aureus” value in the data set on S. aureus (Table 5, gel base 1.4 × 10^7) is 4.5 × 10^5 cfu/ml. Besides, the “log10 reduction in colony count” value with S. aureus (setting [7]) stood at 0.6 log10. The “log10 reduction in colony count” value in the data set on S. aureus (setting [8]) was 1.8 log10.

Turning to `C=CC(C)(O)CCC=C(C)C` (stereo not shown) [LI, Linalool], in the data set with S. aureus, the “synergy of the combination, in words” value is “synergistic antimicrobial effects when combined with BZK”; the Log10 reduction turned out to be 1.3 log10; the CFU/mL is 1.5 × 10^6 CFU/mL.

Turning to `Oc1cc(Cl)ccc1Oc1ccc(Cl)cc1Cl` [TC, triclosan], in the data set on S. aureus, the “synergy of the combination, in words” value is listed as “No such synergism was observed when farnesol was combined”; the Log10 reduction worked out at 1.3 log10; the CFU/mL is 1.5 × 10^6 CFU/mL. Further, the “whether farnesol shows synergy with or enhances the antimicrobial agent, in words” value (from here on “whether farnesol shows synergy”) in the data set on S. aureus (Example 6, Table 6, % w/w) is given as “does not show any synergy”. Moreover, the “whether farnesol shows synergy” value in the data set with S. aureus (setting [9]) is given as “but not with triclosan”. In addition, the “log10 reduction in colony count” value with S. aureus (setting [7]) was found to be 1.3 log10. Further, the “log10 reduction in colony count” value in the data set with S. aureus (setting [8]) was 1.3 log10.

As to “Polyhexamethylenebiguanide hydrochloride [PHMB]”, the “log10 reduction, E. coli” value in the data set on E. coli (Table 5, Base #2, 15 seconds) worked out at 1.6 log10. Besides, in the data set on E. coli (setting [4]), the “cfu/ml, E. coli” value is 6.0 × 10^5 cfu/ml. Also, the “effect of added biguanide on the combination of BZT and farnesol, in words” value with S. aureus (Example 5, Table 5 (S. aureus and E. coli)) is “appears to enhance the activity of the combination of BZT and farnesol”. Also, the “whether farnesol shows synergy” value with S. aureus (Example 6, Table 6, % w/w) is listed as “enhances the activity”; with S. aureus (setting [9]), “appears to enhance the activity of farnesol”. Moreover, the “log10 reduction, S. aureus” value in the data set with S. aureus (Table 5) is recorded as 2.9 log10. For the same compound, the “cfu/ml, S. aureus” value in the data set with S. aureus (Table 5, gel base 1.4 × 10^7) was 4.3 × 10^4 cfu/ml. Also, the “log10 reduction in colony count” value is on record as 2.9 log10 with S. aureus (setting [7]) and 2.1 log10 in the data set on S. aureus (setting [8]).

For the compound benzalkonium chloride [BZK], the “log10 reduction, E. coli” value in the data set on E. coli (setting [2]) was 1.6 log10. Further, the “cfu/ml, E. coli” value with E. coli (setting [3]) is on record as 5.8 × 10^5 cfu/ml. In the data set on S. aureus, the “synergy of the combination, in words” value is “significant synergistic activity in combination with EOs and ICs”; the “synergy in combination with farnesol, in words” value was “synergistic antimicrobial activity when used in combination with farnesol”; the Log10 reduction was determined as 1.8 log10; the CFU/mL was 5.4 × 10^5 CFU/mL. Besides, in the data set on S. aureus (Example 6, Table 6, % w/w), the “whether farnesol shows synergy” value is listed as “shows synergy”. For the same compound, in the data set on S. aureus (listed as BZK (0.06%)), the cfu/ml is reported as 1.8 × 10^6 cfu/ml and the log10 reduction came out at 0.9 log10. Moreover, in the data set on S. aureus (listed as BZK (0.12%)), the cfu/ml is reported as 5.4 × 10^5 cfu/ml and the log10 reduction was 1.4 log10. Besides, in the data set with S. aureus (setting [5]), the “log10 reduction, S. aureus” value is on record as 1.6 log10. Besides, the “cfu/ml, S. aureus” value with S. aureus (setting [6]) was 3.3 × 10^5 cfu/ml. Further, the “log10 reduction in colony count” value with S. aureus (setting [7]) stood at 1.8 log10.

Regarding zinc glycerate, the “water solubility, in words” value in data set [1] is reported as “moderately water soluble”.

Turning to zinc picolinate, in data set [1], the “water solubility, in words” value is reported as “moderately water soluble”.

With zinc pyrithione [ZP], in the data set on S. aureus, the “synergy of the combination, in words” value was “No such synergism was observed when farnesol was combined”; the Log10 reduction turned out to be 1.4 log10; the CFU/mL is 1.4 × 10^6 CFU/mL.
